What was measured:
Type in all cases: cell-based
nitric oxide (NO) = experiment: NO level analysis (Griess reagent) in LPS-stimulated Raw 264.7 cells; details: Raw 264.7 cell, LPS 1 μg/mL, PEP 1 0.5 μg/mL
Protocol: (§1) Raw 264.7 macrophage cell (KCBL, 40071) from Korea Cell Bank was maintained in Dulbecco's modified Eagle's medium (DMEM; PAA, Austria) containing 10% fetal bovine serum (FBS; Gibco Laboratories), 100 unit/mL of streptomycin, and penicillin (Gibco Laboratories) at 37° C. with 5% CO2. Raw264.7 cells were seeded into a 96-well plate at a density of 1×10^6 cells/mL and incubated overnight.
[…] After 30 min incubation of cells with the peptide 50 μL of LPS (to a final concentration of 1 μg/mL) was added, and cells were incubated for additional 24 hr. The experimental sample with the induction of inflammatory response was treated with 1 μg/mL mL lipopolysaccharide (LPS; Sigma, USA) and control sample was treated with phosphate buffered saline (PBS; pH 7.2). The supernatant samples from each condition was collected in eppendorf tubes and subjected to further analysis.
The level of nitric oxide (NO) was measured in Raw 264.7 cell (1×10^6 cell/ml) using Griess reagent system (Promega, USA). Culture medium of 50 μl was added to a 96-well plate and Griess reagent I […] are added in the same amount. After 10 min incubation of cells with the reagents, the optical density at 540 nm was measured within 30 min using a microplate reader (Molecular Devices, USA). The concentration of NO was calculated by using a standard curve (0˜100 μM) of sodium nitrite.

HMGB1 = experiment: Western blot, HMGB1 expression inhibition, LPS-stimulated cells
Protocol: as §1
(§2) On the following day, the medium was replaced with fresh medium and 5 μg/mL of peptide (obtained as described in Experiment example 1) was added to the cells. After 30 min incubation of cells with the peptide 50 μL of LPS (to a final concentration of 1 μg/mL) was added, and cells were incubated for additional 24 hr. The experimental sample with the induction of inflammatory response was treated with 1 μg/mL mL lipopolysaccharide (LPS; Sigma, USA) and control sample was treated with phosphate buffered saline (PBS; pH 7.2). The supernatant samples from each condition was collected in eppendorf tubes and subjected to further analysis.
(§3) Protein expression level was determined by Western blot analysis. […] The membrane was incubated with ECL (enhanced chemiluminesence) solution (Amersham Life Science Corp., Arlington Heights, Ill., USA), exposed to X-ray, and the level of protein expression was analyzed according to the exposure level shown on the X-ray film.

TNF-α = experiment: Western blot, TNF-α expression inhibition, LPS-stimulated cells
Protocol: as §1, §2, §3

COX-2 = experiment: Western blot, COX-2 expression inhibition, LPS-stimulated cells
Protocol: as §1, §2, §3

IL-6 = IL-6 secretion measurement (ELISA) in LPS-challenged RAW 264.7 cells; details: RAW 264.7 cell, LPS 1 μg/mL, PEP 1 5 μg/ml, 24 hr
Protocol: as §1, §2
To investigate the effect of PEP1 on inhibiting pro-inflammatory cytokine production RAW 264.7 cell were pre-treated with PEP 1 at a concentration of 5 μg/mL challenged with LPS at a concentration of 1 μg/mL, and cells were further incubated for 24 hr. The supernatant samples containing cell culture medium was collected and analyzed for the cytokine levels using ELISA kits (eBioscience, San Diego).
96 wells plates were coated with 100 μl of capture antibodies (diluted in coating buffer to the concentration recommended by manufacturer's protocol) overnight at 4° C. Then, after washing the plates 5 times, 200 μL of assay diluents was added to each well and incubated for 1 hr at room temperature for blocking. […]
Following incubation with the secondary antibody, the plate was washed five times and incubated with 100 μl of avidin-HRP (BD Bioscience) for 30 min at room temperature. […] The reaction was stopped by adding 50 μl of 2N H2SO4 in each well The optical density at 450 nm was measured using a microplate reader. […]

[1] = cells treated with both LPS and Pep1

Sequence: EARPALLTSRLRFIPK [PEP 1]
- Decreased NO Expression Level (%) (nitric oxide (NO)): 65%
- NO Expression Level of control (%) (nitric oxide (NO)): 35%
- NO Expression Level of control (%) (nitric oxide (NO); listed as Pep1): 65%
- Cytokine Expression Level (band intensity) % of control HMGB1 (HMGB1; LPS 1 μg/ml, PEP 1 5 μg/ml): 30%
- decrease of pro-inflammatory cytokine level (HMGB1) (HMGB1; [1]): more than 70%
- Cytokine Expression Level (band intensity) % of control TNF-α (TNF-α; LPS 1 μg/ml, PEP 1 5 μg/ml): 25%
- decrease of pro-inflammatory cytokine level (TNF-α) (TNF-α; [1]): more than 70%
- Cytokine Expression Level (band intensity) % of control COX-2 (COX-2; LPS 1 μg/ml, PEP 1 5 μg/ml): 22%
- decrease of pro-inflammatory cytokine level (COX) (COX-2; [1]): more than 70%
- cytokine IL-6 production % of control (IL-6): 28%
- cytokine IL-6 production inhibition % (IL-6): 72%
- cytokine IL-6 production inhibition % (IL-6; listed as PEP-1): more than 70%

From patent publication US11098294B2, “Anti-inflammatory peptides and composition comprising same” (GemVax & KAEL Co., Ltd., priority 2012, dated 2021)
